Here are results for five compounds from PMC10987480, “Biological and mutational analyses of CXCR4–antagonist interactions and design of new antagonistic analogs” (Bioscience Reports, 2023).

Assay [1] deals with T1, CXCR4 (Homo sapiens, UniProt P61073). Put plainly: CXCR4-mediated internalization assay, CHO cells expressing CXCR4-EGFP (confocal). Format: cell-based. The arrangement: expressed in transfected cells. The settings on record: same concentrations as in calcium mobilization assay; 50 nM SDF-1α; compared with their effect on calcium mobilization. As for the experimental part: Figure 3 The inhibitory effect of the antagonists on CXCR4 internalization CHO cells expressed CXCR4-EGFP conjugates were seeded in 96-well plate with glass bottom. Untreated cells were used as a control. Cells were pre-treated with or without CXCR4 antagonists and internalized with 50 nM SDF-1α (scale bar: 5 μm). The concentrations of the antagonists used were the same as those for the calcium mobilization assay shown above. The data shown were representative of three independent experiments.
CXCR4 and EGFP were amplified using a primer shown in Supplementary Table S1. The pcDNA3 vector was digested by restriction-enzyme EcoR1 and Apa1. CXCR4 was digested by restriction-enzyme EcoR1 and Xba1. EGFP was digested by restriction-enzyme Xba1 and Apa1. CXCR4–EGFP conjugate was constructed by ligation of three DNA fragments using T4 ligase. The vector containing CXCR4 ligated EGFP at the C-terminus was transfected and expressed in CHO cells in 100 μl DMEM medium supplemented with 2% FBS at 1 × 10^5/ml which was seeded in 96-well black plate glass bottom and incubated at 37°C overnight. Following incubation with tested compounds for 10 min, 50 nM of SDF-1α was added to each well and the internalized CXCR4 was observed using a confocal microscopy (Zeiss LSM880).
Background: A change in cytosolic calcium serves as a functional read-out for many receptors and channels.

The test system of assay [2] is CXCR4. Conditions: previous studies by others; read-out: IC50, inhibition of calcium mobilization; cited from earlier work. The text has this:
To understand the receptor–ligand recognition mechanism involving CXCR4 and its antagonists, here in this study we conducted a series of comparative analyses of the biological activities and CXCR4 binding sites of eleven known CXCR4 antagonists, including the three mentioned above, using cell-based bioassays, CXCR4 site-directed mutagenesis and computer-aided molecular modeling.

Assay [3] concerns the target T1, CXCR4. The arrangement: expressed in transfected cells. Conditions: previously published result; ref 42 (table footnote; text b13 cites 46); read-out: IC50 (nM), inhibition of 12G5 binding to CXCR4; cited from earlier work. The text has this: Table 1 Sequences and structures of eleven antagonists | column: IC50 (nM)

Positions of bridges follow the written chain, without caps; N, C: chain ends. Non-standard residues stand in square brackets, D forms with d. Residues, ends and D or L forms follow the SMILES beside them. Chains are numbered I, II in the order given. No end group written: not given here. 2Nal = N[C@@H](Cc1ccc2ccccc2c1)C(=O)O; Lys(iPr) = CC(C)NCCCC[C@H](N)C(=O)O

T1 sequence (P61073 whole entry): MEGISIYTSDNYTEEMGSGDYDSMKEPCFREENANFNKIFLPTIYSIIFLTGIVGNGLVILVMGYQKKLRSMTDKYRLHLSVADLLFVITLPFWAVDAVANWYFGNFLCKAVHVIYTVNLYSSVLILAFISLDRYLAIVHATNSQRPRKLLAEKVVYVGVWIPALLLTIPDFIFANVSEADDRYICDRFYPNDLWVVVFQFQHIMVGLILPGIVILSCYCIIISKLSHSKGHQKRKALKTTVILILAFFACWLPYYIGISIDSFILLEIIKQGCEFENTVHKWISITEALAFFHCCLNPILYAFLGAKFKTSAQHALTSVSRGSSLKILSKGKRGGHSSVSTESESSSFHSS

Consider `CC(C)NCCCC[C@H](NC(=O)[C@H]1CCC(=O)N[C@@H](Cc2ccccc2)C(=O)N[C@@H](Cc2ccc(O)cc2)C(=O)N[C@@H](CCCCNC(C)C)C(=O)N[C@H](CCCNC(=N)N)C(=O)N[C@@H](Cc2ccc3ccccc3c2)C(=O)NCC(=O)N1)C(N)=O` [LY2510924] (FY[Lys(iPr)][dR][2Nal]G[dE][Lys(iPr)]-NH2; lactam N-7 (inferred)), for which, on CXCR4 [1], the “Effect on blocking CXCR4 endocytosis (in words)” value is “lessened effect”. One may read the IC50 as the concentration that gives 50% inhibition. As to `NCCCCN(Cc1nc2ccccc2[nH]1)[C@H]1CCCc2cccnc21` [AMD11070], the IC50 with CXCR4 [2] is 0.009 µM. With “I: [dL]G[dA][dS][dW][dH][dR][dP][dD][dK][dC][dC][dL]G[dY][dQ][dK][dR][dP][dL][dP] / II: [dL]G[dA][dS][dW][dH][dR][dP][dD][dK][dC][dC][dL]G[dY][dQ][dK][dR][dP][dL][dP] (disulfide I:11-II:11, I:12-II:12) [DV1 dimer]”, at CXCR4 [1], the “Effect on blocking CXCR4 endocytosis (in words)” value was “lessened effect”. Turning to “LGASWHRPDKCCLGYQKRPLPQVLLSSWYPTSQLCSKPGVIFLTKRGRQVCADKSKDWVKKLMQQLPVTAR [vMIP-II, viral macrophage-inflammatory protein-II, full-length natural chemokine antagonist produced by human herpesvirus-8; recombinant from Peprotech]”, the IC50 on CXCR4 [3] was 10 nM. As for `c1cc(CN2CCCNCCNCCCNCC2)ccc1CN1CCCNCCNCCCNCC1` [AMD3100], the IC50 with CXCR4 [2] was […].
